Assay results from BindingDB's records for doi:10.1021/jm00164a020 (Merck Sharp & Dohme Research Laboratories, 1990).

Target: Gastrin/cholecystokinin type B receptor (Cavia porcellus)
Assay: Inhibition of binding of [125I]gastrin to Cholecystokinin type B receptor from guinea pig gastric glands

IC50 [µM] | Structure (SMILES)
4.1 | O=C(O)CC[C@H](NC(=O)c1cc2ccccc2[nH]1)C(=O)N(C1CCCCC1)C1CCCCC1
13 | CCCCCN(CCCCC)C(=O)[C@@H](CCC(=O)O)NC(=O)Nc1cccc(OC)c1
0.43 | CCCCCN(CCCCC)C(=O)C(CCC(=O)N1CCCC1)NC(=O)Nc1ccc(Cl)cc1 (centres undefined)
44 | CCCCCN(CCCCC)C(=O)C(CCC(=O)OCc1ccccc1)NC(=O)Nc1ccc(Cl)cc1 (centres undefined)
